Laboratory results: patent publication US20170008888A1 (KYORIN PHARMACEUTICAL CO., LTD., priority 2014, published 2017)

How the values were obtained:
[1] = tested on: TLR4 signaling in primary human umbilical vein endothelial cells; experiment: Cytokine response to TLR4 agonism (LPS) in primary HUVEC (ELISA); format: cell-based; conditions: for IL-8: 22 hr; for IL-6 response, in words: summary of Table 24
Description: (§1) In this example, the following commercially available inhibitors were tested:
(§2) The results were compared with test compound 61.
(§3) Pooled primary human umbilical vein endothelial cells (HUVEC) were obtained from Lonza (Allendale, N.J.) and maintained in either complete EGM-2 defined media (Lonza) or Medium 200 supplemented with Low Serum Growth Supplement (Life Technologies, Grand Island, N.Y.). Cells at low passage (<5) were seeded at 4e5 cells/ml and allowed to adhere overnight at 37° C. in a humidified atmosphere at 5% CO2. Cells were pre-treated with test compounds for 1 h prior to TLR2 or TLR4 stimulation. To test for the effects of TLR2 agonism, the TLR2 agonist peptide Pam3CysK4 (Santa Cruz Biotechnology, Dallas, Tex.) was used at 10 μg/ml. PHC-SKKK (Enzo Life Sciences, Farmingdale, N.Y.) served as the negative control peptide. To test for the effects of TLR4 agonism, LPS from E. coli 0111:B4 (EMD Millipore, Billerica, Mass.) was used at 100 ng/ml. Cells were incubated for 22 hr, after which the supernatant was collected and analyzed for cytokine concentrations by ELISA (Life Technologies). Absorbance at 450 nm was read using the Wallac 1420 Victor^2 multilabel microplate reader (Perkin Elmer, Waltham, Mass.).

[2] = tested on: TLR2 signaling in primary human umbilical vein endothelial cells; experiment: Cytokine response to TLR2 agonism (Pam3CysK4) in primary HUVEC (ELISA); format: cell-based; conditions: for IL-8 response to TLR2 (Pam3CysK4) stimulation, in words: summary of Table 22
Description: It has been reported in the literature that that ERK5 mediates TLR2-dependent inflammatory signaling in several cell types including human umbilical vein endothelial cells (HUVEC). See Wilhelmsen et al., J Biol Chem. 2012; 287:26478-94. Wilhelmsen et al. further reported that MEK1 negatively regulates TLR2 signaling in HUVECs, with pharmacological inhibition of MEK1 augmenting (IL-6, G-CSF, GM-CSF) or not changing (IL-8) pro-inflammatory cytokine release in response to TLR2 stimulation.
as §1, §2, §3

[3] = tested on: primary asthmatic human bronchial epithelial cells; experiment: IL-17A- or IL-17F-mediated cytokine response by primary asthmatic human bronchial epithelial cells; format: cell-based; conditions: Epithelial cell, 0.25 μM, positive control, data not shown, read-out: inhibition of measured cytokines
Description: The virally immortalized, normal human bronchial epithelial cell line BEAS-2B was purchased from ATCC (Manassas, Va.). Primary bronchial epithelial cells isolated from a patient diagnosed with asthma were obtained from Lonza (Allendale, N.J.). Both cells were maintained in complete Bronchial Epithelial Cell Growth Medium (BEGM) (Lonza). Cells were seeded at 1e5 cells/ml and incubated at 37° C. in a humidified atmosphere at 5% CO2 overnight to adhere. Cells were pre-treated with test compounds (10 μM down by ⅕ in a 3- or 4-point serial dilution series) for 1 h at 37° C. in a humidified atmosphere at 5% CO2. DMSO at a final concentration of 0.1% served as the non-inhibited control. Budesonide (Selleck Chemicals, Houston, Tex.), a clinically approved glucocorticoid steroid for the treatment of asthma, was tested as a positive control at 0.25 μM. Cells were stimulated with 50 ng/ml of either human recombinant IL-17A or IL-17F (eBioscience, San Diego, Calif.), for 48 h. Supernatant was then collected and analyzed for cytokine concentrations using the Bio-Plex Pro Human Cytokine 17-Plex Panel (Bio-Rad Laboratories, Hercules, Calif.) according to the manufacturer's instructions. Magnetic beads were measured on the Bio-Plex MAGPIX multiplex reader instrument using the accompanying xPONENT 4.2 acquisition software (Bio-Rad Laboratories). Data were analyzed via the Bio-Plex Manager software v6.1 (Bio-Rad Laboratories). For the primary asthmatic bronchial epithelial cells, five (+IL-17F) to thirteen (+IL-17A) cytokines were in range of detection under the conditions used. […] Select cytokines were analyzed for comparison using the BEAS-2B cell line.
BLQ: cytokine levels were below limits of quantitation.

[4] = tested on: collagen-induced arthritis mouse model; experiment: Collagen-induced arthritis (CIA) mouse model: histopathology of tibiofemoral and tarsal/phalangeal joints; format: in vivo, mouse (DBA/1J)
[5] = tested on: collagen-induced arthritis mouse model; experiment: Collagen-induced arthritis (CIA) mouse model: in-life disease score, paw thickness; format: in vivo, mouse (DBA/1J); conditions: for change in group average disease score - mean, Day versus Day 21 (start of treatment): Tofacitinib 15 mg/kg PO BID from D21
[6] = 10 μM inhibitor, +100 ng/ml LPS
[7] = 10 μM inhibitor, No Stimulation
[8] = 5 μM inhibitor, +10 μg/ml PHC-SKKK (negative control peptide), 22 hr
[9] = 5 μM inhibitor, +10 μg/ml Pam3CysK4, 22 hr
[10] = Group 2 (n=10): Tofacitinib 15 mg/kg PO BID D21-D42
[11] = Group 2: Tofacitinib 15 mg/kg PO BID D21-D42

In the case of `O=C(NC[C@H](O)CO)c1ccncc1Nc1ccc(I)cc1F` [AS703026], the “IL-8” value ([1]; 5 μM inhibitor, +100 ng/ml LPS) is reported as 1970 ± 126 pg/mL, the “G-CSF” value [1, 6] is reported as 90 ± 13 pg/mL and the “IL-6” value [1, 6] is reported as 1368 ± 169 pg/mL. For the same molecule, the “G-CSF” value [1, 7] was 30 ± 1 pg/mL, the “IL-6” value [1, 7] was 529 ± 20 pg/mL and the “IL-6 response, in words” value [1] was “Cytokine augmentation was observed”. The “IL-8” value [2, 8] was 0 ± 23 pg/mL, the “IL-8” value [2, 9] was 732 ± 36 pg/mL and the “IL-8 response to TLR2 (Pam3CysK4) stimulation, in words” value (“IL-8 response to TLR2” for short) [2] was “moderate IL-8 augmentation”.
`CCCC1O[C@@H]2C[C@H]3[C@@H]4CCC5=CC(=O)C=C[C@]5(C)[C@H]4[C@@H](O)C[C@]3(C)[C@]2(C(=O)CO)O1` (stereo partly drawn) [Budesonide, reference compound] was tested, and the inhibition at […] [3] was < 50%.
In the case of `C[S+]([O-])c1ccc(-c2nc(-c3ccncc3)c(-c3ccc(F)cc3)[nH]2)cc1` (stereo not drawn) [SB203580], the “G-CSF” value [1, 6] is reported as 318 ± 33 pg/mL, the “IL-6” value [1, 6] is reported as 112 ± 10 pg/mL and the “IL-8” value [1, 6] is reported as 1526 ± 54 pg/mL. For the same molecule, the “G-CSF” value [1, 7] was 7 ± 9 pg/mL, the “IL-6” value [1, 7] was 18 ± 5 pg/mL and the “IL-6 response, in words” value [1] was “reduced”. For the same molecule, the “IL-8” value ([2]; 10 μM inhibitor, +10 μg/ml PHC-SKKK (negative control peptide), 22 hr) was 54 ± 12 pg/mL, the “IL-8” value ([2]; 10 μM inhibitor, +10 μg/ml Pam3CysK4, 22 hr) was 450 ± 23 pg/mL and the “IL-8 response to TLR2” value [2] was “reduced the IL-8 response”.
With `C[C@@H]1CCN(C(=O)CC#N)C[C@@H]1N(C)c1ncnc2[nH]ccc12` [Tofacitinib, reference compound] the “histopathology of hind-limb joints (knee, paw/tarsal), in words” value ([4]; Day 42, H&E) was “less effective at mitigating cartilage and periosteal erosion at the knee and ulceration and synovial hyperplasia than 46”, the “Animals with normal tarsal joints (% of total n in group)” value [4, 10] was 40% and the “Number of animals with normal tarsal joints” value [4, 10] was 4. For the same molecule, the “Tibiofemoral joint score: cartilage erosion/ulceration” value [4, 11] was 16.3, the “Tibiofemoral joint score: inflammation” value [4, 11] was 16.3 and the “Tibiofemoral joint score: periosteal proliferation/erosion” value [4, 11] was 7.8. For the same molecule, the “Tibiofemoral joint score: synovial hyperplasia” value [4, 11] was 5.0, the “change in group average disease score - mean, Day versus Day 21 (start of treatment)” value (from here on “change in group average disease score”) ([5]; Day 21) was 0.0 and the “change in group average disease score” value ([5]; Day 24) was 0.3. The “change in group average disease score” value ([5]; Day 26) was 0.9, the “change in group average disease score” value ([5]; Day 28) was 1.8 and the “change in group average disease score” value ([5]; Day 31) was 2.3. For the same molecule, the “change in group average disease score” value ([5]; Day 33) was 2.6, the “change in group average disease score” value ([5]; Day 35) was 2.7 and the “change in group average disease score” value ([5]; Day 37) was 2.2. For the same molecule, the “change in group average disease score” value ([5]; Day 39) was 2.5 and the “percent reduction in overall disease and total paw scores” value ([5]; treatment Day 21-42, Tofacitinib 15 mg/kg BID PO, doses in Table 28) was “about 55%”.
`CCOc1cc(N2CCC(O)CC2)ccc1Nc1ncc2c(n1)N(C)c1ccccc1C(=O)N2C` [XMD8-92] was tested, and the “G-CSF” value ([1]; 5 μM inhibitor, +100 ng/ml LPS) was 111 ± 6 pg/mL, the “IL-6” value ([1]; 5 μM inhibitor, +100 ng/ml LPS) was 170 ± 21 pg/mL and the “IL-8” value ([1]; 5 μM inhibitor, +100 ng/ml LPS) was 1249 ± 42 pg/mL. For the same molecule, the “G-CSF” value ([1]; 5 μM inhibitor, No Stimulation) was 0 ± 1 pg/mL, the “IL-6” value ([1]; 5 μM inhibitor, No Stimulation) was 20 ± 1 pg/mL and the “IL-6 response, in words” value [1] was “reduced”. For the same molecule, the “IL-8” value [2, 8] was 0 ± 25 pg/mL, the “IL-8” value [2, 9] was 199 ± 11 pg/mL and the “IL-8 response to TLR2” value [2] was “reduced the IL-8 response”.
